These results are taken from US12409157B2, “Mitofusin activators and methods of use thereof” (Mitochondria Emotion, Inc., priority 2019, dated 2025).

The test system of series [1] is T1, mitofusin.
T1 construct: EC50 Mito Elongation; other: benchmark <30; unit given as nm; results of functional screening (mitochondrial elongation); other: DMSO vehicle, Reg C positive control
The series is described as follows: mitofusin-dependent mitochondrial elongation (aspect ratio), functional screening. The note with it: DMSO vehicle, Reg C positive control; FIGS. 2-5. The format is cell-based, mouse.

A short description of series [2]: Plasma stability, mouse. The format is in vitro ADME. The note with it: M.
Series [3] in a line: Plasma stability, human. The format is in vitro ADME. The note with it: H.
The target in series [4] is T2, MFN2 (Homo sapiens, UniProt O95140).
T2 sequence (O95140 1-757): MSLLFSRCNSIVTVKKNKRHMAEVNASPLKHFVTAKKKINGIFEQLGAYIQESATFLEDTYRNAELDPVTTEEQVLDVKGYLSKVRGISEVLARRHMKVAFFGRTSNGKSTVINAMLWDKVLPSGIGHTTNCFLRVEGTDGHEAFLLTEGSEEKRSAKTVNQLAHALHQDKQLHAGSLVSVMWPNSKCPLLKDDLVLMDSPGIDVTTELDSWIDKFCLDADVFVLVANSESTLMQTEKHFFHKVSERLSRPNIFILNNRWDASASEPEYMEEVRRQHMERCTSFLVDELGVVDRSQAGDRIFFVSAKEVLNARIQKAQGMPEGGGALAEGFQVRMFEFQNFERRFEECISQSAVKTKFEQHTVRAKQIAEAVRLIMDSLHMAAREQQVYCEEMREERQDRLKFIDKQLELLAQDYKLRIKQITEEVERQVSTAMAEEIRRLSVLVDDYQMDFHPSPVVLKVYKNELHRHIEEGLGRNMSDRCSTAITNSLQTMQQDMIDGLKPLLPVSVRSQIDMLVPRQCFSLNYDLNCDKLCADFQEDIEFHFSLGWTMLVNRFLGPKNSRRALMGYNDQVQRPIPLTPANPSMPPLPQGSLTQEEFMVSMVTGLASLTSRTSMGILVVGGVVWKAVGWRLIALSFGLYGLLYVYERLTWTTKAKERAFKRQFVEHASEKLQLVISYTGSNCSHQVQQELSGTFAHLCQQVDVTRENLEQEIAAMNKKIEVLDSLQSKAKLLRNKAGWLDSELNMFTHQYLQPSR
Briefly: conformational opening of mitofusin 2. The format is biochemical. The note with it: FIG. 6B.

Series [5] concerns mitofusin. As to conditions: Rocha et al 2018 Science 360:336; read-out: EC50 as mitofusin activator; cited from earlier work.

Entries after “also recorded” stand apart in the source; their conditions may differ.

For the molecule `O=C(CCCCCc1ccccn1)NC1CCC(O)CC1` (stereo not shown) [MiM111 N1, (4-Hydroxycyclohexyl)-6-(pyridin-2-yl)hexanamide], the “results of functional screening (mitochondrial elongation)” value in series [1] is recorded as “All compounds except MiM111 N1 were highly active”.
As to `O=C(CCCCCc1ccccc1)NC1CCC(O)CC1` (stereo not shown) [MiM111, N-(4-hydroxycyclohexyl)-6-phenylhexanamide], the “Plasma Stability (120 min.)” value in series [2] came out at 100%; in series [3], 87%. Also, the “conformational opening of MFN2” value in series [4] is recorded as “induces an open conformation of its target MFN2; also recorded: conformational opening of MFN 2 mimics that of an agonist peptide”.
Take `CC1CCCCC1NC(=O)NCCSCc1ccccc1` (stereo not shown) [compound A, 1-[2-(benzylsulfanyl)ethyl]-3-(2-methylcyclohexyl)urea]: the EC50 in series [5] is around 30 nM.
Consider `CC(Sc1nnc(C2CC2)n1-c1ccccc1)C(=O)Nc1sc2c(c1C(N)=O)CCC2` (stereo not shown) [compound B, 2-{2-[(5-cyclopropyl-4-phenyl-4H-1,2,4-triazol-3-yl)sulfanyl]propanamido}-4H,5H,6H-cyclopenta[b]thiophene-3-carboxamide], for which the EC50 in series [5] was around 10 nM.
Regarding `CC1CC(O)CCC1NC(=O)NCCCCc1ccccc1` (stereo not shown) [MiM5, 1-(4-Hydroxy-2-methylcyclohexyl)-3-(4-phenylbutyl)urea], the “results of functional screening (mitochondrial elongation)” value in series [1] is recorded as “highly active”.

For orientation: EC50 means the midpoint of the concentration-response curve.
